Measured values reported in ChEMBL document CHEMBL5030533, “Mechanistic Investigation of Site-specific DNA Methylating Agents Targeting Breast Cancer Cells” (J Med Chem, 2021).
Activity calls are given as the source filed them. No cut-off for these calls is given here.

Legend:
[1] = tested on: Calf thymus DNA; assay: Binding affinity to calf thymus DNA assessed as 3-MeA adduct formation at 50 uM after 24 hrs by RP-HPLC analysis; format: nucleic-acid assay; conditions: Bos taurus
[2] = tested on: Calf thymus DNA; assay: Binding affinity to calf thymus DNA assessed as 7-MeG adduct formation at 25 uM after 24 hrs by RP-HPLC analysis; format: nucleic-acid assay; conditions: Bos taurus
[3] = tested on: Calf thymus DNA; assay: Binding affinity to calf thymus DNA assessed as 7-MeG adduct formation at 50 uM after 24 hrs by RP-HPLC analysis; format: nucleic-acid assay; conditions: Bos taurus
[4] = tested on: Calf thymus DNA; assay: Binding affinity to calf thymus DNA assessed as 7-MeG adduct formation at 100 uM after 24 hrs by RP-HPLC analysis; format: nucleic-acid assay; conditions: Bos taurus
[5] = tested on: Calf thymus DNA; assay: Binding affinity to calf thymus DNA assessed as 3-MeA adduct formation at 25 uM after 24 hrs by RP-HPLC analysis relative to control; format: nucleic-acid assay; conditions: Bos taurus
[6] = tested on: Calf thymus DNA; assay: Binding affinity to calf thymus DNA assessed as 3-MeA adduct formation at 50 uM after 24 hrs by RP-HPLC analysis relative to control; format: nucleic-acid assay; conditions: Bos taurus
[7] = tested on: Calf thymus DNA; assay: Binding affinity to calf thymus DNA assessed as 3-MeA adduct formation at 100 uM after 24 hrs by RP-HPLC analysis relative to control; format: nucleic-acid assay; conditions: Bos taurus
[8] = tested on: Calf thymus DNA; assay: Binding affinity to calf thymus DNA assessed as 3-MeA adduct formation at 100 uM after 24 hrs in presence of netropsin by RP-HPLC analysis relative to control; format: nucleic-acid assay; conditions: Bos taurus
[9] = tested on: MCF7; assay: Cytotoxicity against human MCF7 cells measured after 16 hrs by MTT assay; format: functional, cell-based; conditions: MCF7, 16 h
[10] = tested on: MCF7; assay: Cytotoxicity against ER positive human MCF7 cells at 100 uM incubated for 24 hrs in presence of estradiol by MTT assay; format: functional, cell-based
[11] = tested on: Calf thymus DNA; assay: Binding affinity to calf thymus DNA assessed as 7-MeG adduct formation at 100 uM after 24 hrs in presence of netropsin by RP-HPLC analysis; format: nucleic-acid assay; conditions: Bos taurus
[12] = tested on: Calf thymus DNA; assay: Binding affinity to calf thymus DNA assessed as 3-MeA adduct formation at 25 uM after 24 hrs by RP-HPLC analysis; format: nucleic-acid assay; conditions: Bos taurus
[13] = tested on: Calf thymus DNA; assay: Binding affinity to calf thymus DNA assessed as 3-MeA adduct formation at 5000 uM after 24 hrs by RP-HPLC analysis; format: nucleic-acid assay; conditions: Bos taurus
[14] = tested on: Calf thymus DNA; assay: Binding affinity to calf thymus DNA assessed as 3-MeA adduct formation at 5000 uM after 24 hrs by RP-HPLC analysis relative to control; format: nucleic-acid assay; conditions: Bos taurus
[15] = tested on: Calf thymus DNA; assay: Binding affinity to calf thymus DNA assessed as 3-MeA adduct formation at 5000 uM after 24 hrs in presence of netropsin by RP-HPLC analysis relative to control; format: nucleic-acid assay; conditions: Bos taurus
[16] = tested on: Calf thymus DNA; assay: Binding affinity to calf thymus DNA assessed as 3-MeA adduct formation at 5000 uM after 24 hrs in presence of netropsin by RP-HPLC analysis; format: nucleic-acid assay; conditions: Bos taurus
[17] = biological target: T1, Estrogen receptor (Homo sapiens, UniProt P03372); assay: Binding affinity of ERalpha LBD (unknown origin) incubated for 2 hrs by LanthaScreen TR-FRET assay
T1 sequence (P03372 whole entry): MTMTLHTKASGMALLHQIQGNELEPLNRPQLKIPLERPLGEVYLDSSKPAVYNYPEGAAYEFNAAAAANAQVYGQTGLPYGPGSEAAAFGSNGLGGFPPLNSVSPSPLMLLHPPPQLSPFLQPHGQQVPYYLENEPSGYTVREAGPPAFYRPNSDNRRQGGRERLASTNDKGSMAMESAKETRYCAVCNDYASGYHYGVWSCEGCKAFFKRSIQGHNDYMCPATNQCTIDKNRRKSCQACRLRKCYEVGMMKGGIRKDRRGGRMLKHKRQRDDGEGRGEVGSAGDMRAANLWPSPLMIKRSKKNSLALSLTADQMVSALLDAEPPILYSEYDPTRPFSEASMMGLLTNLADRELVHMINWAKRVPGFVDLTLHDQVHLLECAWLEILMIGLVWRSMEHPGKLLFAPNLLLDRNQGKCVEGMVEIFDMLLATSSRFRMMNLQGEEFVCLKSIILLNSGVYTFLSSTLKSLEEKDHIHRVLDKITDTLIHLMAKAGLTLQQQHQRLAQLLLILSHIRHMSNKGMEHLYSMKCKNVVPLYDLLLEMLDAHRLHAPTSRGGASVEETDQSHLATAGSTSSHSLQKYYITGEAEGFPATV

[18] = biological target: T2, Estrogen receptor (Homo sapiens) (UniProt P03372); assay: Induction of ERalpha nuclear translocation in human MCF7 cells assessed as increase in IGFBP4 mRNA expression at 0.1 to 5 nM after 24 hrs by RT-qPCR analysis; format: cell-based; conditions: dose 0.1-5 nM
T2 sequence (whole entry): T1 sequence (P03372 whole entry)

[19] = biological target: T2, Estrogen receptor (Homo sapiens); assay: Induction of ERalpha nuclear translocation in human MCF7 cells assessed as increase in TFF1 mRNA expression at 0.1 to 5 nM after 24 hrs by RT-qPCR analysis; format: cell-based; conditions: dose 0.1-5 nM
[20] = biological target: T2, Estrogen receptor (Homo sapiens); assay: Induction of ERalpha nuclear translocation in human MCF7 cells assessed as increase in RasGRP1 mRNA expression at 0.1 to 5 nM after 24 hrs by RT-qPCR analysis; format: cell-based; conditions: dose 0.1-5 nM
[21] = biological target: T2, Estrogen receptor (Homo sapiens); assay: Induction of ERalpha nuclear translocation in human MCF7 cells assessed as increase in LRP2 mRNA expression at 0.1 to 5 nM after 24 hrs by RT-qPCR analysis; format: cell-based; conditions: dose 0.1-5 nM
[22] = biological target: T2, Estrogen receptor (Homo sapiens); assay: Induction of ERalpha nuclear translocation in human MCF7 cells assessed as increase in RGNEF mRNA expression at 0.1 to 5 nM after 24 hrs by RT-qPCR analysis; format: cell-based; conditions: dose 0.1-5 nM
[23] = biological target: T2, Estrogen receptor (Homo sapiens); assay: Induction of ERalpha nuclear translocation in human MCF7 cells assessed as increase in AGR2 mRNA expression at 0.1 to 5 nM after 24 hrs by RT-qPCR analysis; format: cell-based; conditions: dose 0.1-5 nM
[24] = biological target: T2, Estrogen receptor (Homo sapiens); assay: Induction of ERalpha nuclear translocation in human MCF7 cells assessed as increase in SLFN5 mRNA expression at 0.1 to 5 nM after 24 hrs by RT-qPCR analysis; format: cell-based; conditions: dose 0.1-5 nM
[25] = tested on: Calf thymus DNA; assay: Displacement of ethidium bromide from calf thymus DNA assessed as relative binding by measuring molar equivalents by spectrofluorometric assay; format: nucleic-acid assay; conditions: Bos taurus
[26] = tested on: Calf thymus DNA; assay: Binding affinity to calf thymus DNA assessed as 3-MeA adduct formation at 100 uM for 24 hrs in presence of netropsin by RP-HPLC analysis; format: nucleic-acid assay; conditions: Bos taurus
[27] = tested on: MCF7; assay: Cytotoxicity against ER positive human MCF7 cells incubated for 24 hrs in presence of estradiol by MTT assay; format: functional, cell-based; conditions: MCF7, 24 h
[28] = tested on: MDA-MB-231; assay: Cytotoxicity against ER negative human MDA-MB-231 cells incubated for 24 hrs in presence of estradiol by MTT assay; format: functional, cell-based; conditions: MDA-MB-231, 24 h
[29] = tested on: Calf thymus DNA; assay: Binding affinity to calf thymus DNA assessed as 3-MeA adduct formation at 100 uM after 24 hrs by RP-HPLC analysis; format: nucleic-acid assay; conditions: Bos taurus
[30] = biological target: T2, Estrogen receptor (Homo sapiens); assay: Induction of ERalpha nuclear translocation in human MCF7 cells at 15 nM after 5 hrs by immunofluorescence assay; format: cell-based

Row | Structure (SMILES) | Activity [1] | Activity [2] | Activity [3] | Activity [4] | Activity [5] | Activity [6] | Activity [7] | Activity [8] | EC50 [9] | Activity [11] | Activity [12] | Activity [18] | Activity [19] | Activity [20] | Activity [21] | Activity [22] | Activity [23] | Activity [24] | Activity [25] | Activity [26] | further results
1 | CCCNC(=O)c1cc(NC(=O)c2cc(NC(=O)CCS(=O)(=O)OC)cn2C)cn1C | 8230 µmol | 185 µmol | 399 µmol | 774 µmol | 96% | 95% | 95% | 95% | 85 µM | 714 µmol | 4600 µmol | – | – | – | – | – | – | – | – | – | Activity [10]: Active
2 | COS(C)(=O)=O | – | – | – | – | – | – | – | – | – | – | – | – | – | – | – | – | – | – | – | – | Activity [13]: 1800 µmol; Activity [14]: 9%; Activity [15]: 31%; Activity [16]: 1240 µmol
3 | Cn1cc(NC(=O)c2cc(NC(=O)CCS(C)(=O)=O)cn2C)cc1C(=O)NCC(=O)NCCCCCC[C@@H]1Cc2cc(O)ccc2[C@H]2CC[C@]3(C)[C@@H](O)CC[C@H]3[C@H]12 | – | – | – | – | – | – | – | – | 122 µM | – | – | Active | Active | Active | inactive | Active | Active | Active | 4.35 Mequiv | – | IC50 [17]: 0.00099 µM
4 | COS(=O)(=O)CCC(=O)Nc1cc(C(=O)Nc2cc(C(=O)NCCC(=O)NCCCCCC[C@@H]3Cc4cc(O)ccc4[C@H]4CC[C@]5(C)[C@@H](O)CC[C@H]5[C@H]34)n(C)c2)n(C)c1 | – | 93 µmol | 253 µmol | 495 µmol | 99% | 98% | 97% | 95% | 39.4 µM | 409 µmol | 6520 µmol | – | – | – | – | – | – | – | – | 769 µmol | Activity [10]: inactive; EC50 [27]: 50.7 µM; EC50 [28]: 160 µM
5 | COS(=O)(=O)CCC(=O)Nc1cc(C(=O)Nc2cc(C(=O)NCC(=O)NCCCCCC[C@@H]3Cc4cc(O)ccc4[C@H]4CC[C@]5(C)[C@@H](O)CC[C@H]5[C@H]34)n(C)c2)n(C)c1 | 1760 µmol | 194 µmol | 404 µmol | 404 µmol | 89% | 86% | 83% | 91% | 142 µM | 482 µmol | 1620 µmol | – | – | – | – | – | – | – | – | 180 µmol | Activity [29]: 1920 µmol; Activity [30]: Active
6 | COS(=O)(=O)CCC(=O)Nc1cc(C(=O)Nc2cc(C(=O)NCCCC(=O)NCCCCCC[C@@H]3Cc4cc(O)ccc4[C@H]4CC[C@]5(C)[C@@H](O)CC[C@H]5[C@H]34)n(C)c2)n(C)c1 | 922 µmol | 147 µmol | 204 µmol | 318 µmol | 83% | 82% | 79% | 86% | 89.5 µM | 420 µmol | 699 µmol | – | – | – | – | – | – | – | – | 173 µmol | Activity [29]: 1210 µmol
7 | Cn1cc(NC(=O)c2cc(NC(=O)CCS(C)(=O)=O)cn2C)cc1C(=O)NCCCC(=O)NCCCCCC[C@@H]1Cc2cc(O)ccc2[C@H]2CC[C@]3(C)[C@@H](O)CC[C@H]3[C@H]12 | – | – | – | – | – | – | – | – | 146 µM | – | – | Active | Active | Active | Active | Active | Active | Active | 4.43 Mequiv | – | –
8 | Cn1cc(NC(=O)c2cc(NC(=O)CCS(C)(=O)=O)cn2C)cc1C(=O)NCCC(=O)NCCCCCC[C@@H]1Cc2cc(O)ccc2[C@H]2CC[C@]3(C)[C@@H](O)CC[C@H]3[C@H]12 | – | – | – | – | – | – | – | – | – | – | – | Active | Active | Active | inactive | Active | Active | Active | 2.54 Mequiv | – | IC50 [17]: 0.00148 µM
